pIC50: −log10 of the molar value.

The target in assay [1] is full-length recombinant human NEK7 (Homo sapiens (Human), UniProt Q8TDX7). Briefly: NEK7 Enzymatic Assay ([33P]-ATP, casein substrate). The class given is biochemical. Here is the method:
Casein substrate (from bovine milk, hydrolyzed and partially dephosphorylated mixture of α, β and a caseins, obtained from Sigma Aldrich, catalogue #C4765, diluted in distilled water to a final concentration of 1 mg/mL) and full-length recombinant human NEK7 (expressed by baculovirus in Sf9 insect cells using a N-terminal GST tag, obtained from SignalChem, catalogue #N09-10G, 0.1 μg/μL) were mixed in assay buffer (20 mM Hepes pH 7.5, 10 mM MgCl2, 1 mM EGTA, 0.02% Brij35, 0.02 mg/ml BSA, 0.1 mM Na3VO4, 2 mM DTT, 1% DMSO). Compounds of interest (serial 3-fold dilution in DMSO from 10 μM to 0.5 nM) or vehicle (1% DMSO) were dispensed into the kinase reaction mixture by Acoustic technology (Echo550; nanoliter range). After incubation at room temperature for 20 minutes, the kinase reaction was initiated by addition of [^33P]-ATP (specific activity […]) and the mixture was incubated at room temperature for 2 hours. The reaction was then stopped by spotting the reaction mixture on strips of phosphocellulose P81 paper. Following washing, the radioactivity of the P81 paper was measured and kinase activity data were expressed as the percent remaining kinase activity in test samples compared to vehicle reactions. IC50 values and curve fits were obtained using Prism (GraphPad Software).

Assay [2] relates to IL-1β release from THP-1 cells. Description: IL-1β Release Assay (PMA-differentiated THP-1 cells, LPS + nigericin). To be noted: Homo sapiens, 250 ng/mL LPS, 20 μM nigericin. The class given is cell-based. The protocol:
Approximately 1.5 million THP-1 cells were plated in each well of a 6-well TC plate and incubated with 40 nM PMA in RPMI (10% FBS, 1% Penstrep) for 24 hours. The media was then removed and cells were rested in RPMI (10% FBS, 1% Penstrep) for 24 hours after which time the media was removed and cells were pre-treated for 2 hours with various concentrations of compounds of interest (typically serial 3-fold dilution in RPMI+5% FBS, concentrations ranging from 1 μM to 0.5 nM) in RPMI (5% FBS). The media was again removed and cells were incubated with 250 ng/mL LPS and compounds of interest (concentrations as above) in RMPI (5% FBS) for 2 hours. The media was removed for a last time and cells were incubated with 20 μM nigericin and compounds of interest (concentrations as above) in Opti-MEM for 30 minutes. Cell media was then collected and the amount of cleaved IL-1β was determined using a JESS instrument (Protein Simple) and standard protocols. Cleaved Il-1β antibody was obtained from Cell Signaling (catalogue #83186S) and was used at 1:20 dilution in antibody diluent 2. Protein Simple 1× anti-Rabbit HRP secondary antibody was used along with Protein Simple luminol and peroxide for chemiluminescent detection. Primary antibody incubation time was increased from 30 minutes to 60 minutes.

full-length recombinant human NEK7, sequence (Q8TDX7 whole entry): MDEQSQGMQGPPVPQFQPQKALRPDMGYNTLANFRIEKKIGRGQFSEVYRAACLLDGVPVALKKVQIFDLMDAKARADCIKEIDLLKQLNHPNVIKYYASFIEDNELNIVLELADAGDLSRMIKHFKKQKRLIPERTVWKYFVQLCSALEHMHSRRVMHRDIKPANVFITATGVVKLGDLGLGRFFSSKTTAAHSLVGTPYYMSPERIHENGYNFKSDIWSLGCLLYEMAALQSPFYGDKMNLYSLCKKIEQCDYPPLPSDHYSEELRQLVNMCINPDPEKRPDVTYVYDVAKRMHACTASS

Consider `CC(C)(C#N)c1cc(NC(=O)Nc2ccc(-c3cn(C4CC4)c4ncnc(N)c34)cc2F)on1` [Example 35, 1-(4-(4-amino-7-cyclopropyl-7H-pyrrolo[2,3-d]pyrimidin-5-yl)-2-fluorophenyl)-3-(3-(2-cyanopropan-2-yl)isoxazol-5-yl)urea], for which the pIC50 in assay [1] and in assay [2] was 6.52 to 6.82 in each case.

For `CC1(c2cc(NC(=O)Nc3ccc(-c4cn(C5CC5)c5ncnc(N)c45)cc3F)on2)CCC1` [Example 34, 1-(4-(4-amino-7-cyclopropyl-7H-pyrrolo[2,3-d]pyrimidin-5-yl)-2-fluorophenyl)-3-(3-(1-methylcyclobutyl)isoxazol-5-yl)urea], the negative logarithm of the IC50 (pIC50) in assay [1] and in assay [2] was > 6.82 in each case.

For the compound `CC(C)(C)c1cc(NC(=O)Nc2ccc(-c3cn(C4CC4)c4ncnc(N)c34)cn2)on1` [Example 3, 1-(5-(4-amino-7-cyclopropyl-7H-pyrrolo[2,3-d]pyrimidin-5-yl)pyridin-2-yl)-3-(3-(tert-butyl)isoxazol-5-yl)urea], the pIC50 in assay [1] is > 6.82; in assay [2] it was 6.52 to 6.82.

For `Nc1ncnc2c1c(-c1ccc(NC(=O)Nc3cc(C4(C(F)(F)F)CC4)no3)c(F)c1)cn2C1CC(O)C1` (stereo not drawn) [Example 39, 1-(4-(4-amino-7-(3-hydroxycyclobutyl)-7H-pyrrolo[2,3-d]pyrimidin-5-yl)-2-fluorophenyl)-3-(3-(1-(trifluoromethyl)cyclopropyl)isoxazol-5-yl)urea], the negative-log IC50 (pIC50) in assay [1] and in assay [2] was > 6.82 each time.

Consider `CC(C)(C)c1cc(NC(=O)Nc2ccc(-c3cn(C4CC4)c4ncnc(N)c34)cc2F)on1` [Example 2, 1-(4-(4-amino-7-cyclopropyl-7H-pyrrolo[2,3-d]pyrimidin-5-yl)-2-fluorophenyl)-3-(3-(tert-butyl)isoxazol-5-yl)urea], for which the negative logarithm of the IC50 (pIC50) in assay [1] and in assay [2] was > 6.82 throughout.

As for `Cc1cc(-c2cn(C3CC3)c3ncnc(N)c23)ccc1NC(=O)Nc1cc(C2(C(F)(F)F)CC2)no1` [Example 38, 1-(4-(4-amino-7-cyclopropyl-7H-pyrrolo[2,3-d]pyrimidin-5-yl)-2-methylphenyl)-3-(3-(1-(trifluoromethyl)cyclopropyl)isoxazol-5-yl)urea], the negative-log IC50 (pIC50) in assay [1] is 5.82 to 6.30; in assay [2] it was 6.30 to 6.52.

`CC(C)(O)Cn1cc(-c2ccc(NC(=O)Nc3cc(C4(C(F)(F)F)CC4)no3)c(F)c2)c2c(N)ncnc21` [Example 14, 1-(4-(4-amino-7-(2-hydroxy-2-methylpropyl)-7H-pyrrolo[2,3-d]pyrimidin-5-yl)-2-fluorophenyl)-3-(3-(1-(trifluoromethyl)cyclopropyl)isoxazol-5-yl)urea]: the pIC50 in assay [1] was 6.52 to 6.82; in assay [2], > 6.82.

With `Nc1ncnc2c1c(-c1ccc(NC(=O)Nc3cc(C4(C(F)(F)F)CC4)on3)c(F)c1)cn2C1CC1` [Example 10, 1-(4-(4-amino-7-cyclopropyl-7H-pyrrolo[2,3-d]pyrimidin-5-yl)-2-fluorophenyl)-3-(5-(1-(trifluoromethyl)cyclopropyl)isoxazol-3-yl)urea], the pIC50 in assay [1] is 6.52 to 6.82; in assay [2] it was > 6.82.

As for `CC(C)(C)c1cc(NC(=O)NC2CC=C(c3cn(C4CC4)c4ncnc(N)c34)CC2)on1` (stereo not drawn) [Example 15, 1-(4-(4-amino-7-cyclopropyl-7H-pyrrolo[2,3-d]pyrimidin-5-yl)cyclohex-3-en-1-yl)-3-(3-(tert-butyl)isoxazol-5-yl)urea], the pIC50 in assay [1] was < 5.82; in assay [2], < 6.00.

The values above are taken from patent publication US11161852B1 (Halia Therapeutics, Inc., priority 2020, dated 2021).
